The text below walks through data of ChEMBL document CHEMBL1208703, “Structure-activity relationships and in vivo activity of (1H-pyrazol-4-yl)acetamide antagonists of the P2X(7) receptor” (Bioorg Med Chem Lett, 2010).

Activity calls are given as the source filed them. No cut-off for these calls is given here.

For data set [1], the target named is T1, P2X purinoceptor 7 (Homo sapiens, UniProt Q99572).
T1 sequence (Q99572 whole entry): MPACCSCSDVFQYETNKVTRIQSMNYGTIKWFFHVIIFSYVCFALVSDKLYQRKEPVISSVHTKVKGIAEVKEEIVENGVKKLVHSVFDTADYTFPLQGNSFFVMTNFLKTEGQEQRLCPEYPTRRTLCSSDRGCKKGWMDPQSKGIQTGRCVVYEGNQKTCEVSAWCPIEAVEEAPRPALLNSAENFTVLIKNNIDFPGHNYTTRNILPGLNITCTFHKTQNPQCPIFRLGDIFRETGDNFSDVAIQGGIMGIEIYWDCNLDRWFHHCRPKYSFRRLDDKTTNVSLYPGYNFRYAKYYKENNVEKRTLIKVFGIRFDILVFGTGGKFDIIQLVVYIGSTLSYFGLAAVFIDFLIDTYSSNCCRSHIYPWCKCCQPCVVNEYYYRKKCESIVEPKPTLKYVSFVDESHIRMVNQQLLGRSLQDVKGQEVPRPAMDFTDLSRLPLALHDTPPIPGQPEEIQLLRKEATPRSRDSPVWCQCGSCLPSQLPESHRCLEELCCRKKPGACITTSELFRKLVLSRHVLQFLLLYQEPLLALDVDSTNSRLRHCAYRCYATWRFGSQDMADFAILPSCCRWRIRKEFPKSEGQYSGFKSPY
In words: Antagonist activity at human P2X7 receptor ethidium bromide release assay. It is filed as functional.

Data set [2] can be described thus: Blood clearance in rat at 1 mg/kg, iv. It counts as ADME, organism-based. Also noted: dose 1 mg/kg, route intravenous. The note with it: whole blood.
In data set [3] the test system is Rattus norvegicus. Nature of the data set: Reversal of complete Freund's adjuvant-induced hypersensitivity in rat chronic knee joint pain model at 5-50 mg/kg, po administered 13 days after complete Freund's adjuvant challenge bid for 4 days measured on day 14. It counts as functional, organism-based.
Data set [4] can be described thus: Oral bioavailability in rat at 3 mg/kg. It is filed as ADME, organism-based. The conditions noted are these: in vivo, read-out: Activity.
Data set [5] is described as follows: Excretion half life in rat at 1 mg/kg, iv. The note with it: in vivo, read-out: beta t1/2 (converted). Also noted: dose 1 mg/kg, route intravenous. It is filed as ADME, organism-based.
Data set [6] concerns Blood. Nature of the data set: Drug level in rat blood at 10 mg/kg, po. The conditions noted are these: in vivo, read-out: Drug uptake. It counts as ADME, organism-based. Also noted: dose 10 mg/kg, route oral.
Data set [7] has as its system Rattus norvegicus. In words: Reversal of complete Freund's adjuvant-induced hypersensitivity in rat chronic knee joint pain model at 5-50 mg/kg, po administered 13 days after complete Freund's adjuvant challenge bid for 4 days measured on day 15. It is filed as functional, organism-based.
The target in data set [8] is T2, P2X purinoceptor 7 (Rattus norvegicus, UniProt Q64663).
T2 sequence (Q64663 whole entry): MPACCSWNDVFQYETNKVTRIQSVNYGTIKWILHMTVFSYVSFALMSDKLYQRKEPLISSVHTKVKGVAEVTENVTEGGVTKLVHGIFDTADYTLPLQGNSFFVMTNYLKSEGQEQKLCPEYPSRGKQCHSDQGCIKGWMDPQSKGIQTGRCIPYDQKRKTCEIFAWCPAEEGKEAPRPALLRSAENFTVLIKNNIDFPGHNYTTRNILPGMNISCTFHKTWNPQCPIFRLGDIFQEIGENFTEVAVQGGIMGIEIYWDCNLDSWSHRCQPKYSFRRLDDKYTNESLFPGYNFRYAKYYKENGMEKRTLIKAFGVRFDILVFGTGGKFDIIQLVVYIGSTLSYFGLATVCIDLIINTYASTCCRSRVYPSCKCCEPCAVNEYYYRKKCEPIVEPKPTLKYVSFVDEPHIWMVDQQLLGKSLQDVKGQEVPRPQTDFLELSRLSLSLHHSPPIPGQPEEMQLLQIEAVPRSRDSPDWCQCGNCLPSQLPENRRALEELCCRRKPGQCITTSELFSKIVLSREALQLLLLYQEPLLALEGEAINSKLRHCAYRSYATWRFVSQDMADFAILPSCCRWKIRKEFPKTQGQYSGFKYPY
Nature of the data set: Antagonist activity at rat P2X7 receptor ethidium bromide release assay. It counts as functional.

For data set [9], the system named is Rattus norvegicus. In words: Antihyperalgesic activity against complete Freund's adjuvant-induced hypersensitivity in po dosed rat inflammatory pain model after 1.5 hrs. It is filed as functional.
A short description of data set [10]: Volume of distribution at steady state in rat at 1 mg/kg, iv. It counts as ADME, organism-based. Also noted: dose 1 mg/kg, route intravenous. The conditions noted are these: in vivo, read-out: Vdss.
The test system of data set [11] is Rattus norvegicus. Nature of the data set: Antihyperalgesic activity against complete Freund's adjuvant-induced hypersensitivity in rat inflammatory pain model at 10 mg/kg, po after 1.5 hrs. It counts as functional, organism-based. Also noted: dose 10 mg/kg.
Data set [12] concerns Brain. In words: Drug level in rat brain at 10 mg/kg, po. Also noted: dose 10 mg/kg, route oral. The conditions noted are these: in vivo, read-out: Drug uptake. It counts as ADME, organism-based.

`Cc1cn[nH]c1CCC(=O)NCc1ccc(F)cc1Cl` gave an IC50 in data set [1] of 398 nM.

In turn, `Cc1n[nH]c(C)c1CC(=O)NCc1ccc(Cl)cc1` gave an IC50 in [1] of 631 nM.

With `CCc1n[nH]c(CC)c1CCC(=O)NCc1ccc(F)cc1Cl`, the IC50 in data set [1] was 10 nM.

`Cc1n[nH]c(C)c1CC(=O)NCc1ccc(F)cc1C(F)(F)F` showed an IC50 in [1] of 39.8 nM.

`Cc1n[nH]c(C)c1CC(=O)NCc1ccc(Cl)c(C(F)(F)F)c1` showed a 50% inhibitory concentration (IC50) in data set [1] of 63.1 nM.

`Cc1noc(C)c1CCC(=O)NCc1ccc(F)cc1Cl` gave an IC50 in data set [1] of 63.1 nM.

On to `Cc1cc(CCC(=O)NCc2ccc(F)cc2Cl)n(C)n1`, for which the half-inhibitory concentration (IC50) in [1] is 316 nM.

For the compound `Cc1[nH]nc(-c2ccccc2)c1CCC(=O)NCc1ccc(F)cc1Cl`, the IC50 in [1] was > 1000 nM.

The compound `Cc1n[nH]c(C)c1CC(=O)NCc1ccc(Cl)cc1Cl` showed a clearance in [2] of 9 mL/min/kg. The outcome in data set [3], in [7] and in data set [11] was Active. Moreover, the bioavailability in data set [4] turned out to be 100%. For the same compound, in [5], the half-life was 1.7 h. For the same compound, the IC50 is 7.94 nM in [1] and 79.4 nM in data set [8]. In addition, the concentration was 20.9 µM in data set [6] and 4.9 µM in data set [12]. In [9], the ED50 was found to be 2.5 mg/kg. For the same compound, the Vd in [10] came to 1 L/kg.

In data set [1], `Cc1n[nH]c(C)c1CC(=O)NCc1ccccc1Cl` showed an IC50 of 251 nM.

Regarding `Cc1noc(C)c1CC(=O)NCc1cccc(C(F)(F)F)c1Cl`, the IC50 in [1] was 2.51 nM.

`Cc1n[nH]c(C)c1CC(=O)NCc1cccc(C(F)(F)F)c1Cl`: the IC50 in data set [1] was 2.51 nM.

With `Cc1[nH]nc(C(C)(C)C)c1CCC(=O)NCc1ccc(F)cc1Cl`, the concentration for half-maximal inhibition (IC50) in data set [1] was 158 nM.

For `Cc1cnn(C)c1CC(=O)NCc1ccc(Cl)cc1Cl`, the IC50 in data set [1] is 10 nM.

Regarding `CC(C)c1n[nH]c(C(C)C)c1CCC(=O)NCc1ccc(F)cc1Cl`, the midpoint of inhibition in data set [1], the IC50, lay at 126 nM.

Consider `Cc1[nH]nc(C(F)(F)F)c1CCC(=O)NCc1ccc(F)cc1Cl`, for which, in data set [1], the IC50 was 12.6 nM.

As for `Cc1[nH]nc(CC(C)C)c1CCC(=O)NCc1ccc(F)cc1Cl`, the IC50 in data set [1] is 100 nM.

`Cc1cnn(C)c1CC(=O)NCc1cccc(C(F)(F)F)c1Cl`: the IC50 in data set [1] was 3.16 nM.

With `Cc1cnn(C)c1CCC(=O)NCc1ccc(F)cc1Cl`, in data set [1], it took 158 nM to reach half-maximal inhibition (IC50).

For `Cc1n[nH]c(C)c1CC(=O)NCc1cccc(Cl)c1`, it took 158 nM to reach half-maximal inhibition in [1] (IC50).

Turning to `Cc1noc(C)c1CC(=O)NCc1ccc(Cl)cc1Cl`, in [1], the IC50 is 15.8 nM.

For `Cn1ncc(F)c1CC(=O)NCc1cccc(C(F)(F)F)c1Cl`, in data set [1], 10 nM corresponded to half-maximal inhibition (IC50).

In the case of `Cc1n[nH]c(C)c1CC(=O)NCc1ccc(F)cc1F`, in data set [1], the half-maximal inhibitory concentration (IC50) is 158 nM.
